Experimental data taken from patent publication US9656959B2, “Substituted pyridines as sodium channel blockers” (Purdue Pharma L.P., priority 2010, dated 2017).
Where two headings read alike, the source gives them in different places.

Molecular target: human Nav1.7 (Homo sapiens (Human), UniProt Q15858)
Test: FLIPR or FLIPR TETRA sodium dye assay with KCl and test article pre-incubation
Assay type: cell-based
[1] = read-out: Nav1.7 Activity (μM) FLIPR assay IC50 (μM) ± SEM
[2] = recombinant Nav1.7/HEK293 cells, CoroNa Green sodium dye, veratridine + scorpion venom agonists, ± SEM

Chain of human Nav1.7 (Q15858 with tags, fused parts or gaps limits assumed): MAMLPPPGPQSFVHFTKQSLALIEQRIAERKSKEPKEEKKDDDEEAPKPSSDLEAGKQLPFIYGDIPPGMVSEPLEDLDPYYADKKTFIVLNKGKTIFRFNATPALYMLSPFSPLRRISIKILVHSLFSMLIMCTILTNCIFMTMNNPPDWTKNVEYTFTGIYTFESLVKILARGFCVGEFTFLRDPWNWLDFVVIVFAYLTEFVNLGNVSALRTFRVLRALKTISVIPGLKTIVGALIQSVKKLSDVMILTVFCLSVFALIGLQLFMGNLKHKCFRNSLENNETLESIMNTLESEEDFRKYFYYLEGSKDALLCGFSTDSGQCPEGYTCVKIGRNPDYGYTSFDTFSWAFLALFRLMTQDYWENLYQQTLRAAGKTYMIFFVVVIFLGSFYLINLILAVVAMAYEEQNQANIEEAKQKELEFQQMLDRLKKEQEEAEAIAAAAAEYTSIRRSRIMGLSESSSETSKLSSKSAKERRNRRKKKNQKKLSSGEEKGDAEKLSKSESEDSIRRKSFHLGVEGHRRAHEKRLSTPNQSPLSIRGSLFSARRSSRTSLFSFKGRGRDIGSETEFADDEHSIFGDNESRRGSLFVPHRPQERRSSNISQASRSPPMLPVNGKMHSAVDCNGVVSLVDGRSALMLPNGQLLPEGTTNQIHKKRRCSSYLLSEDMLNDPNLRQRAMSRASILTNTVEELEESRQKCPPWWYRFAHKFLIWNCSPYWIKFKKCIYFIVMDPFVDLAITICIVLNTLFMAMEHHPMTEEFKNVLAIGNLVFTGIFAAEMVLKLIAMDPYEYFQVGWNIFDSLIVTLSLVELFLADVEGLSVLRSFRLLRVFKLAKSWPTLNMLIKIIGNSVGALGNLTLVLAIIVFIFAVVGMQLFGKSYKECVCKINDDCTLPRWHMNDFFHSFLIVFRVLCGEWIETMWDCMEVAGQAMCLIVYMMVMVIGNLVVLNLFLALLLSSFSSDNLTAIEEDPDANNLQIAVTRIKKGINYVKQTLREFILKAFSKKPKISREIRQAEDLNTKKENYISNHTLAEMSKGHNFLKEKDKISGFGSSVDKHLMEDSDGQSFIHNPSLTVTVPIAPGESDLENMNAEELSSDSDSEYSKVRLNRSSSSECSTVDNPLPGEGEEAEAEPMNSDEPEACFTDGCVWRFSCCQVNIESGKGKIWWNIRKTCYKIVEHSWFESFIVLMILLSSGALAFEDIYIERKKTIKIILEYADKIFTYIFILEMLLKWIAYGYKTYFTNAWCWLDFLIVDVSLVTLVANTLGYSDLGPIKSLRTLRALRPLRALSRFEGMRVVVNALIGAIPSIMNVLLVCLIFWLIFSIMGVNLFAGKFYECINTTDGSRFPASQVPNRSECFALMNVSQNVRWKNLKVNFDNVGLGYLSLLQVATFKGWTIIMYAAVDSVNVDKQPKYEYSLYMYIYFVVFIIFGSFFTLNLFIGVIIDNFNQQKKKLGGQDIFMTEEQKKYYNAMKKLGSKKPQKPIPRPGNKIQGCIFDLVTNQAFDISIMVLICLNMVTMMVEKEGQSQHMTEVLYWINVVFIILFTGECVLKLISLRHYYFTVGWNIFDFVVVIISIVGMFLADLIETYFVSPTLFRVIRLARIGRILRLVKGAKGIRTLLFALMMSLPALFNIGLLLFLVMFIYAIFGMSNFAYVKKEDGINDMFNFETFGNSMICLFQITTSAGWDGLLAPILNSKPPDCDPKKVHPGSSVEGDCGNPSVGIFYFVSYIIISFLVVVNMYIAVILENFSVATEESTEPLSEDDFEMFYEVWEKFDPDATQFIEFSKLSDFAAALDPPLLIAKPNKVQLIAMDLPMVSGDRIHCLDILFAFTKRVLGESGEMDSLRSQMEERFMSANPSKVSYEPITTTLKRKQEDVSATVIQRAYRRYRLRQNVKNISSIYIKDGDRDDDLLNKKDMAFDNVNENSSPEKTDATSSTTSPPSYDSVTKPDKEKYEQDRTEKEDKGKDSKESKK

Compound | IC50 [1] | IC50 [2]
CC(C)C(=O)N[C@@H](Cc1cn(C)cn1)C(=O)Nc1cccc(-c2ccc(Oc3ccc(F)cc3)cc2)n1 [Compound 82, (S)-N-(6-(4-(4-fluorophenoxy)phenyl)pyridin-2-yl)-2-isobutyramido-3-(1-methyl-1H-imidazol-4-yl)propanamide] | 0.046 ± 0.005 µM | –
CS(=O)(=O)Nc1cc(Cl)cc(-c2ccc(Oc3ccc(F)cc3)cc2)n1 [Compound 15, N-(4-chloro-6-(4-(4-fluorophenoxy)phenyl)pyridin-2-yl)methanesulfonamide] | 0.26 ± 0.07 µM | –
CC(C)C[C@H](NC(=O)C1CC1)C(=O)Nc1cc([C@H](O)CO)cc(-c2ccc(Oc3ccc(F)cc3)cc2)n1 [Compound 44, N-((S)-1-((4-((S)-1,2-dihydroxyethyl)-6-(4-(4-fluorophenoxy)phenyl)pyridin-2-yl)amino)-4-methyl-1-oxopentan-2-yl)cyclopropanecarboxamide] | 0.059 ± 0.12 µM | –
CC(=O)N[C@@H](Cc1cn(C)cn1)C(=O)Nc1cc(-c2ccc(Oc3ccc(F)cc3)cc2)ccn1 [Compound 84, (S)-2-acetamido-N-(4-(4-(4-fluorophenoxy)phenyl)pyridin-2-yl)-3-(1-methyl-1H-imidazol-4-yl)propanamide] | 0.29 ± 0.025 µM | –
Cn1cnc(C[C@H](NC(=O)C(C)(C)C)C(=O)Nc2cccc(-c3ccc(Oc4ccc(F)cc4)cc3)n2)c1 [Compound 83, (S)-N-(6-(4-(4-fluorophenoxy)phenyl)pyridin-2-yl)-3-(1-methyl-1H-imidazol-4-yl)-2-pivalamidopropanamide] | 0.02 ± 0.002 µM | –
CC(C)(C)OC(=O)N[C@@H](CO)C(=O)Nc1cccc(-c2ccc(Oc3ccc(F)cc3)cc2)n1 [Compound 59, ((S)-1-{6-[4-(4-Fluoro-phenoxy)-phenyl]-pyridin-2-ylcarbamoyl}-2-hydroxy-ethyl)-carbamic acid tert-butyl ester] | 0.31 ± 0.07 µM | –
Cn1cnc(S(=O)(=O)Nc2cccc(-c3ccc(Oc4ccc(F)cc4)cc3)n2)c1 [Compound 29, N-(6-(4-(4-fluorophenoxy)phenyl)pyridin-2-yl)-1-methyl-1H-imidazole-4-sulfonamide] | 0.32 ± 0.05 µM | –
CC(C)C[C@H](NC(=O)CO)C(=O)Nc1cccc(-c2ccc(Oc3ccc(F)cc3)cc2)n1 [Compound 90, (S)-N-(6-(4-(4-fluorophenoxy)phenyl)pyridin-2-yl)-2-(2-hydroxyacetamido)-4-methylpentanamide] | 0.07 ± 0.012 µM | –
O=C(N[C@@H](CO)C(=O)Nc1cccc(-c2ccc(Oc3ccc(F)cc3)cc2)n1)c1ccccn1 [Compound 54, Pyridine-2-carboxylic acid ((S)-1-{6-[4-(4-fluoro-phenoxy)-phenyl]-pyridin-2-ylcarbamoyl}-2-hydroxy-ethyl)-amide] | 0.07 ± 0.02 µM | –
O=C(Nc1cccc(-c2ccc(Oc3ccc(C(F)(F)F)cn3)cc2)n1)C(O)CO (centres unmarked) [Compound 96, 2,3-dihydroxy-N-(6-(4-((5-(trifluoromethyl)pyridin-2-yl)oxy)phenyl)pyridin-2-yl)propanamide] | > 20 µM | –
CS(=O)(=O)Nc1cccc(-c2ccc(Oc3ccc(F)cc3)cc2)n1 [Compound 27, N-(6-(4-(4-fluorophenoxy)phenyl)pyridin-2-yl)methanesulfonamide] | 0.34 ± 0.05 µM | –
CC(C)C[C@H](NC(=O)c1cccnc1)C(=O)Nc1cccc(-c2ccc(Oc3ccc(F)cc3)cc2)n1 [Compound 10, (S)-N-(1-((6-(4-(4-fluorophenoxy)phenyl)pyridin-2-yl)amino)-4-methyl-1-oxopentan-2-yl)nicotinamide] | 0.091 ± 0.03 µM | –
Cn1cnc(S(=O)(=O)Nc2cc([C@H](O)CO)cc(-c3ccc(Oc4ccc(F)cc4)cc3)n2)c1 [Compound 26, (S)-N-(4-(1,2-dihydroxyethyl)-6-(4-(4-fluorophenoxy)phenyl)pyridin-2-yl)-1-methyl-1H-imidazole-4-sulfonamide] | – | > 20 µM
Cc1cc(C(=O)N[C@@H](CO)C(=O)Nc2cccc(-c3ccc(Oc4ccc(F)cc4)cc3)n2)no1 [Compound 58, 5-Methyl-isoxazole-3-carboxylic acid ((S)-1-{6-[4-(4-fluoro-phenoxy)-phenyl]-pyridin-2-ylcarbamoyl}-2-hydroxy-ethyl)-amide] | 0.11 ± 0.04 µM | –
NC(=O)N[C@@H](CO)C(=O)Nc1cccc(-c2ccc(Oc3ccc(F)cc3)cc2)n1 [Compound 61, (S)-N-{6-[4-(4-Fluoro-phenoxy)-phenyl]-pyridin-2-yl}-3-hydroxy-2-ureido-propionamide] | 0.12 ± 0.05 µM | –
COCC(=O)N[C@@H](Cc1c[nH]cn1)C(=O)Nc1cccc(-c2ccc(Oc3ccc(F)cc3)cc2)n1 [Compound 35, (S)-N-(6-(4-(4-fluorophenoxy)phenyl)pyridin-2-yl)-3-(1H-imidazol-4-yl)-2-(2-methoxyacetamido)propanamide] | 0.13 ± 0.02 µM | –
CCC(=O)N[C@@H](Cc1cn(C)cn1)C(=O)Nc1cccc(-c2ccc(Oc3ccc(F)cc3)cc2)n1 [Compound 81, (S)-N-(6-(4-(4-fluorophenoxy)phenyl)pyridin-2-yl)-3-(1-methyl-1H-imidazol-4-yl)-2-propionamidopropanamide] | 0.064 ± 0.01 µM | –
Cn1cnc(C[C@H](NC(=O)Nc2cccc(-c3ccc(Oc4ccc(F)cc4)cc3)n2)C(N)=O)c1 [Compound 99, (S)-2-(3-(6-(4-(4-fluorophenoxy)phenyl)pyridin-2-yl)ureido)-3-(1-methyl-1H-imidazol-4-yl)propanamide] | 0.667 ± 0.162 µM | –

Compound | IC50 [1] | IC50 [2]
NS(=O)(=O)Nc1cc(Cl)cc(-c2ccc(Oc3ccc(F)cc3)cc2)n1 [Compound 18, N-(4-chloro-6-(4-(4-fluorophenoxy)phenyl)pyridin-2-yl)sulfamide] | 1.5 ± 0.3 µM | –
Cn1cnc2ccc(C(=O)Nc3cccc(-c4ccc(Oc5ccc(F)cc5)cc4)n3)cc21 [Compound 98, N-(6-(4-(4-fluorophenoxy)phenyl)pyridin-2-yl)-1-methyl-1H-benzo[d]imidazole-6-carboxamide] | – | > 20 µM
CC(C)(O)C(=O)N[C@@H](Cc1c[nH]cn1)C(=O)Nc1cccc(-c2ccc(Oc3ccc(F)cc3)cc2)n1 [Compound 37, (S)-N-(6-(4-(4-fluorophenoxy)phenyl)pyridin-2-yl)-2-(2-hydroxy-2-methylpropanamido)-3-(1H-imidazol-4-yl)propanamide] | 0.12 ± 0.03 µM | –
CS(=O)(=O)N(C[C@H](O)CO)c1cc(Cl)cc(-c2ccc(Oc3ccc(F)cc3)cc2)n1 [Compound 17, (S)-N-(4-chloro-6-(4-(4-fluorophenoxy)phenyl)pyridin-2-yl)-N-(2,3-dihydroxypropyl)methanesulfonamide] | 0.094 ± 0.03 µM | –
Cn1cnc(C[C@H](NC(=O)CC(F)(F)F)C(=O)Nc2cccc(-c3ccc(Oc4ccc(F)cc4)cc3)n2)c1 [Compound 86, (S)-3,3,3-trifluoro-N-(1-((6-(4-(4-fluorophenoxy)phenyl)pyridin-2-yl)amino)-3-(1-methyl-1H-imidazol-4-yl)-1-oxopropan-2-yl)propanamide] | 0.084 ± 0.007 µM | –
CC(C)C[C@H](NC(=O)NC(C)C)C(=O)Nc1cccc(-c2ccc(Oc3ccc(F)cc3)cc2)n1 [Compound 11, (S)-N-(6-(4-(4-fluorophenoxy)phenyl)pyridin-2-yl)-2-(3-isopropylureido)-4-methylpentanamide] | 0.086 ± 0.02 µM | –
O=S(=O)(Nc1cccc(-c2ccc(Oc3ccc(F)cc3)cc2)n1)C1CC1 [Compound 28, N-(6-(4-(4-fluorophenoxy)phenyl)pyridin-2-yl)cyclopropane Sulfonamide] | 0.22 ± 0.07 µM | –
CC(=O)N1CCC(C(=O)N[C@@H](Cc2c[nH]cn2)C(=O)Nc2cccc(-c3ccc(Oc4ccc(F)cc4)cc3)n2)CC1 [Compound 34, (S)-1-acetyl-N-(1-((6-(4-(4-fluorophenoxy)phenyl)pyridin-2-yl)amino)-3-(1H-imidazol-4-yl)-1-oxopropan-2-yl)piperidine-4-carboxamide] | 0.58 ± 0.05 µM | –
CS(=O)(=O)Nc1cc([C@H](O)CO)cc(-c2ccc(Oc3ccc(F)cc3)cc2)n1 [Compound 24, (S)-N-(4-(1,2-dihydroxyethyl)-6-(4-(4-fluorophenoxy)phenyl)pyridin-2-yl)methanesulfonamide] | 2.9 ± 0.8 µM | –
CC(C)C[C@H](NC(=O)c1ccccn1)C(=O)Nc1cc([C@H](O)CO)cc(-c2ccc(Oc3ccc(F)cc3)cc2)n1 [Compound 45, N-((S)-1-((4-((S)-1,2-dihydroxyethyl)-6-(4-(4-fluorophenoxy)phenyl)pyridin-2-yl)amino)-4-methyl-1-oxopentan-2-yl)picolinamide] | 0.3 ± 0.07 µM | –
O=C(CO)N[C@@H](Cc1c[nH]cn1)C(=O)Nc1cccc(-c2ccc(Oc3ccc(F)cc3)cc2)n1 [Compound 36, (S)-N-(6-(4-(4-fluorophenoxy)phenyl)pyridin-2-yl)-2-(2-hydroxyacetamido)-3-(1H-imidazol-4-yl)propanamide] | 0.14 ± 0.01 µM | –
O=C(N[C@@H](CO)C(=O)Nc1cccc(-c2ccc(Oc3ccc(F)cc3)cc2)n1)C1CC1 [Compound 55, Cyclopropanecarboxylic acid ((S)-1-{6-[4-(4-fluoro-phenoxy)-phenyl]-pyridin-2-ylcarbamoyl}-2-hydroxy-ethyl)-amide] | 0.06 ± 0.006 µM | –
COCCOCC(=O)N[C@@H](CC(C)C)C(=O)Nc1cccc(-c2ccc(Oc3ccc(F)cc3)cc2)n1 [Compound 9, (S)-N-(6-(4-(4-fluorophenoxy)phenyl)pyridin-2-yl)-2-(2-(2-methoxyethoxy)acetamido)-4-methylpentanamide] | 0.091 ± 0.02 µM | –
O=C1NCCN1CCNc1cc(Cl)cc(-c2ccc(Oc3ccc(F)cc3)cc2)n1 [Compound 64, 1-(2-((4-chloro-6-(4-(4-fluorophenoxy)phenyl)pyridin-2-yl)amino)ethyl)imidazolidin-2-one] | 0.12 ± 0.01 µM | –
Nc1nc(O)cc(C(=O)Nc2cccc(-c3ccc(Oc4ccc(F)cc4)cc3)n2)n1 [Compound 65, 2-amino-N-(6-(4-(4-fluorophenoxy)phenyl)pyridin-2-yl)-6-hydroxypyrimidine-4-carboxamide] | – | > 20 µM
O=C(Nc1cccc(-c2ccc(Oc3ccc(C(F)(F)F)cc3)cc2)n1)C(O)CO (centres unmarked) [Compound 76, 2,3-dihydroxy-N-(6-(4-(4-(trifluoromethyl)phenoxy)phenyl)pyridin-2-yl)propanamide] | > 20 µM | –
O=C(N[C@@H](CO)C(=O)Nc1cccc(-c2ccc(Oc3ccc(F)cc3)cc2)n1)c1ccncc1 [Compound 57, N-((S)-1-{6-[4-(4-Fluoro-phenoxy)-phenyl]-pyridin-2-ylcarbamoyl}-2-hydroxy-ethyl)-isonicotinamide] | 0.16 ± 0.03 µM | –
